Assay [1] addresses T1, bovine gamma-endorphin (Bos taurus, UniProt P01190).
T1 construct: purchased Boehringer Mannheim (Indianapolis, Ind.); host or cells: chemical synthesis
Put plainly: ELISA binding of gamma-endorphin to coated wells. Particulars: gamma-odne 40 ug/well vs insulin or BSA; absorbance 405 nm; FIG. 7. The protocol: Synthetic bovine gamma-endorphin was obtained from Boehringer Mannheim (Indianapolis, Ind.) and rabbit antibody for synthetic gamma-endo was obtained from Accurate Biochemicals (Westbury, N.Y.).
The wells of a 96-well round-bottomed microtiter plate were coated (by the procedure described in Example 1B) with gamma-odne (40 ug/well), insulin (20U/well) or bovine serum albumin (BSA,200 ug/well . Varying concentrations of gamma-endorphin (as shown on the abscissa in FIG. 7) were incubated in the coated wells for 1 hr, after which the plates were thrice washed with PBS-Tween buffer. The wells were then treated with rabbit antibody for gamma-endorphin, washed, and then treated with goat antibody against rabbit immunoglobulin the goat antibody being conjugated to alkaline phosphatase. After washing away unbound goat antibody conjugate, the bound alkaline phosphatase activity was measured with p-nitrophenylphosphate as earlier described. The results of the above manipulations are shown in FIG. 7 where the extent of absorbance at 405 nm reflects the degree of gamma-endorphin binding to wells coated with gamma-odne, insulin or BSA. […] The shaded area in FIG. 7 represents the extent of gamma-endorphin binding in the presence of soluble excess of gamma-odne. Thus it is shown that a second pair of complementary peptides interacts in a manner showing affinity and apparent congruence.
Background: In an ELISA, binding on a coated surface is turned into a signal by an enzyme label.

In assay [2] the test system is opiate receptors on NG108-15 cells. In words: Inhibition of 125I-beta-endorphin binding to NG108-15 cells. Particulars: 125I-beta-endorphin 10^-11 M. The source says: NG108-15 cells are known to contain receptors for beta-endorphin called opiate receptors. In addition to beta-endorphin, gamma-endorphin and several analogs of beta-endorphin bind to these opiate receptors. The peptide, gamma-ODNE, complementary to gamma-endorphin described in Example II was examined for its ability to inhibit the binding of ^125 I-beta-endorphin to opiate receptors on NG108-15 cells. Gamma-endorphin is a fragment of the larger peptide beta-endorphin.
Seventy percent of the total binding was specific by conventional criteria.
For this experiment, ^1251 -beta-endorphin was preincubated 30 minutes with various amounts of the complementary peptide, gamma-ODNE, before a 30 minute (37° C.) incubation with NG108-15 cells in microtiter wells. After the incubation, cells were washed 3 times and cell associated radioactivity wad determined with a Packard Multi-Prias gamma counter.

Assay [3] concerns female ICR mice. In words: Induction of catatonia in mice by i.c. injection of serum. Format: in vivo. To be noted: simultaneous i.c. injection 0.2 mg. The source says: It is well known that large doses of opiate-like substances can induce a catatonic state in animals which is inhibited or reversed by treatment with the opiate antagonist naloxone. In analogy with the results in earlier examples, the ability of a peptide (qamma-ODNE) complementary to an opiate peptide, qamma-endorphin, to induce antibodies that have opiate properties was examined.
Gamma-ODNE (Example II) was conjugated to Keyhole Limpet Hemocyanin ([…]) and used with Freund's adjuvant to generate rabbit antibodies in a conventional manner (see Example 1F). Both normal and induced rabbit sera were injected intracerebroventicularly (i.c.) into female ICR mice.

Assay [4] addresses T2, mouse adrenal tumor cell ACTH receptor (Mus musculus, UniProt Q64326).
T2 construct: Duplicate cultures of mouse adrenal tumor (Y-1) cells in microtiter plates; endogenous in cells; host or cells: mouse adrenal tumor (Y-1) cells
Put plainly: Glucocorticoid hormone production by mouse adrenal tumor (Y-1) cells. Format: cell-based. Particulars: ACTH 10 microunits/well, 18 hrs. The protocol: An induction of glucocorticoid hormone production by ACTH and anti-HTCA was found with cultured mammalian cells. Duplicate cultures of mouse adrenal tumor (Y-1) cells in microtiter plates were treated with culture media, ACTH (10 microunits/well) or various dilutions of the anti-HTCA.
^a Duplicate cultures of mouse adrenal (Y1) cells in microtiter plate
were treated with culture media, ACTH (10 microunits/well) or the
indicated dilutions of antibody to HTCA. After 18 hrs incubation at
37° in 4% CO2, replicate cultures were pooled and assayed for
glucocorticoid hormone production by a radioimmunoassay (RIA) for […]

The subject of assay [5] is mouse adrenal tumor (Y-1) cells. In words: Binding of anti-HTCA to affixed mouse adrenal tumor (Y-1) cells. Particulars: absorbency at 405 nM; FIG. 5. How it is done: Mouse adrenal tumor (Y-1) cells were affixed by glutaraldehyde in flat bottom wells of a microtiter plate. The affixed cells were then treated with rabbit anti-KLH or rabbit anti-HTCA alone or in the presence of several levels of ACTH. After washing, the microtiter wells were treated with goat antibody to rabbit immunoglobulin the goat antibody being coupled to the enzyme alkaline phosphatase. After washing away unbound antibody-phosphatase complex, p-nitrophenyl phosphate was added and the enzyme dependent development of absorbency at 405 nM was monitored. […] ACTH and anti-HTCA appeared competitive for the same binding site on the mouse adrenal tumor (Y-1) cells. Rabbit anti KLH had no effect (shaded region)

The subject of assay [6] is HTCA. Put plainly: Solid phase radiobinding assay for serum ACTH on HTCA-coated wells. Format: binding. Particulars: for Log10 Dilution at 50% inhibition: graphic interpolation. How it is done:
Complementary peptide (HTCA) was dissolved in phosphate buffered saline (PBS) at 1 mg/ml and 200 ul aliquots were placed in wells of a 96 well polyvinyl assay plate (Microtest III, Falcon Cat. #3911). HTCA was allowed to coat the wells overnight at 4° C. The coating solution was removed and the wells were washed three times with PBS. Radiolabeled ACTH (^125 I-ACTH, New England Nuclear NEX-65) was diluted into PBS containing 0.0005% TWEEN-20 so as to deliver 50 pg (or about 30,000 cpm) in a 20 ul volume.
Serum samples were prepared in a 96 well tissue culture plate by serial dilution of serum into PBS/TWEEN 20 to give a final volume of 180 ul/well. The serum samples were then transferred to the HTCA coated a ssay plate and allowed to incubate. Finally, 20 ul of ^125 I-ACTH solution was added, incubated, and the total sample of 200 ul was removed. After washing three times with PBS, the wells were cut from the plate and counted in a gamma counter.
Serum samples used in this study contained either 50 pg/ml or 500 pg/ml of ACTH added to fetal calf serum (FCS).

Where no end group is shown, it is not given here.

Chain of HTCA (as listed by the source): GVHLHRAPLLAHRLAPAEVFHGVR
T2 sequence (Q64326 whole entry): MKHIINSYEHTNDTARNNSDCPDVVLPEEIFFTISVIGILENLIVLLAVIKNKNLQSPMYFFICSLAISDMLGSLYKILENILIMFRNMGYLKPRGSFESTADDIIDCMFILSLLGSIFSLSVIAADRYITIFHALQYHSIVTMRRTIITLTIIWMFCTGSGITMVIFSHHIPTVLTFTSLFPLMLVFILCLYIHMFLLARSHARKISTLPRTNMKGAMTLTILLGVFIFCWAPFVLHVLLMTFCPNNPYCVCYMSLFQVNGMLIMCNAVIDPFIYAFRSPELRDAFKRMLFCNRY
T2 sequence (Q9D159 whole entry partner): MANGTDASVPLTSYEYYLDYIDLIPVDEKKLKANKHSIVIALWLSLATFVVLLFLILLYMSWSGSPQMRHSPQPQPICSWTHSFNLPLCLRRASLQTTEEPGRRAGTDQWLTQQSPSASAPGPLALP

With “QRDKGRLALLGGHEPAV [gamma-odne, H2 N--gln--arg--asp--lys--gly--arg--leu--ala--leu--leu--gly--gly--his--glu--pro--ala--val--COOH]”, the “gamma-endorphin binding to coated wells (in words)” value in assay [1] is “significantly bound”. In addition, the “% Inhibition of Specific 125I-beta-endorphin” value came out at 75.0 ± 0.6% in assay [2] (10^-4 M); 36.0 ± 2.1% in assay [2] (10^-5 M); 24.7 ± 3.9% in assay [2] (10^-6 M, 30 min preincubation).

Consider `C=CCN1CC[C@]23c4c5ccc(O)c4O[C@H]2C(=O)CC[C@@]3(O)[C@H]1C5` [naloxone], for which, in assay [3], the “effect on serum-induced catatonia” value is listed as “reversed”.

Turning to “ACTH: Synthetic ACTH, fragment 1-24, from Organon; unlabelled ACTH competitor in binding assays”, the “Corticosterone equivalents, Experiment 1” value in assay [4] amounted to 1.08 µg/mL. In addition, the “Corticosterone equivalents, Experiment 2” value in assay [4] came out at 1.42 µg/mL. For the same compound, in assay [5], the “effect on binding of anti-HTCA to affixed Y-1 cells” value is reported as “blocked binding of the anti-HTCA in a dose dependent manner”. Further, the “% Inhibition of Specific Binding” value in assay [6] (50 pg/ml ACTH in FCS, Log10 Dilution -0.5) stood at 73%; in assay [6] (50 pg/ml ACTH in FCS, Log10 Dilution -1.0), 40%; in assay [6] (50 pg/ml ACTH in FCS, Log10 Dilution -1.5), 44%; in assay [6] (50 pg/ml ACTH in FCS, Log10 Dilution -2.0), 9%; in assay [6] (50 pg/ml ACTH in FCS, Log10 Dilution -2.5), 1%; in assay [6] (50 pg/ml ACTH in FCS, Log10 Dilution -3.0), 0%. In addition, the “% Inhibition of Specific Binding” value was determined as 0% in assay [6] (50 pg/ml ACTH in FCS, Log10 Dilution -3.5); 90% in assay [6] (500 pg/ml ACTH in FCS, Log10 Dilution -0.5); 77% in assay [6] (500 pg/ml ACTH in FCS, Log10 Dilution -1.0); 57% in assay [6] (500 pg/ml ACTH in FCS, Log10 Dilution -1.5); 53% in assay [6] (500 pg/ml ACTH in FCS, Log10 Dilution -2.0); 35% in assay [6] (500 pg/ml ACTH in FCS, Log10 Dilution -2.5). In addition, the “% Inhibition of Specific Binding” value was 32% in assay [6] (500 pg/ml ACTH in FCS, Log10 Dilution -3.0) and 20% in assay [6] (500 pg/ml ACTH in FCS, Log10 Dilution -3.5). The “Log10 Dilution at 50% inhibition” value in assay [6] (50 pg/ml serum sample) was -1.1; in assay [6] (500 pg/ml serum sample) it was -2.0.

The values above are taken from US5212072A, “Polypeptides complementary to peptides or proteins having an amino acid sequence or nucleotide coding sequence at least partially known and methods of design therefor” (Board of Regents, The University of Texas System, priority 1991, dated 1993).
